Test systems include HCC-2998 colon; HOP-62 NSCLC; HS 578T breast; MALME-3M melanoma; MOLT-4 leukemia; NCI/ADR-RES ovarian; SW-620 colon; UACC-62 melanoma; UO-31 renal; SR leukemia.
Common to all, as to test: NCI tumour cell line growth inhibition, 48 h

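Five concentrations, 48 hours, 96-well plates. GI50 = concentration required for 50% inhibition of growth. Definition used: TGI = concentration required for complete inhibition of growth.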

`O=C1c2ccccc2C(=O)N1c1ccc(Cc2ccc(N3C(=O)c4ccccc4C3=O)cc2)cc1`: the TGI in the test with HCC-2998 colon, in the test on HOP-62 NSCLC, in the test with HS 578T breast, in the test on MALME-3M melanoma, with MOLT-4 leukemia and in the test on NCI/ADR-RES ovarian was above 100 µM throughout. The TGI with SW-620 colon, in the test on UACC-62 melanoma and with UO-31 renal was above 100 µM throughout.

`COc1ccc(-n2cc(-c3cc(OC)c(OC)c(OC)c3)nc2SCc2cccc(C#N)c2)cc1OC`: the GI50 with HCC-2998 colon was above 100 µM; with HOP-62 NSCLC, above 100 µM; in the test with HS 578T breast, 62.2 µM; in the test with MALME-3M melanoma it was above 100 µM; in the test with MOLT-4 leukemia, 51.7 µM; in the test on NCI/ADR-RES ovarian it was above 100 µM. In addition, the GI50 in the test with SW-620 colon is 34 µM; in the test with UACC-62 melanoma it was above 100 µM; with UO-31 renal it was above 100 µM. Also, the TGI in the test with HCC-2998 colon, in the test on HOP-62 NSCLC, in the test with HS 578T breast, in the test with MALME-3M melanoma, in the test on MOLT-4 leukemia and in the test with NCI/ADR-RES ovarian was above 100 µM in each case. Further, the TGI with SW-620 colon, in the test with UACC-62 melanoma and in the test with UO-31 renal was above 100 µM throughout.

Turning to `COc1ccc(C2=Nn3c(nnc3-c3ccc(F)c(Cl)c3)SC2)cc1`, the GI50 in the test with HCC-2998 colon, in the test on HOP-62 NSCLC, with HS 578T breast, with MALME-3M melanoma, in the test on MOLT-4 leukemia and in the test with NCI/ADR-RES ovarian was above 100 µM each time. Further, the GI50 in the test on SW-620 colon, with UACC-62 melanoma and with UO-31 renal was above 100 µM in each case. Moreover, the TGI with HCC-2998 colon, in the test with HOP-62 NSCLC, with HS 578T breast, in the test on MALME-3M melanoma, in the test with MOLT-4 leukemia and in the test with NCI/ADR-RES ovarian was above 100 µM each time. Also, the TGI in the test with SW-620 colon, with UACC-62 melanoma and in the test with UO-31 renal was above 100 µM throughout.

On to `CN(C)CCCNc1ccnc2c([N+](=O)[O-])cccc12`, for which the TGI in the test with HCC-2998 colon was found to be 27.1 µM; in the test on HOP-62 NSCLC, 82.5 µM; in the test with MALME-3M melanoma, 8.61 µM; with MOLT-4 leukemia it was 66.7 µM; with SR leukemia it was 96.4 µM; in the test with SW-620 colon it was 37.1 µM. Further, the TGI in the test with UO-31 renal was above 100 µM.

`C=CC[P@]1(=O)O[C@H](c2ccccc2)C(C)N1C(C)C` (stereo not given in full): the TGI in the test on HCC-2998 colon, with HOP-62 NSCLC, with MALME-3M melanoma, in the test on MOLT-4 leukemia, with SR leukemia and in the test with SW-620 colon was above 100 µM in each case. Further, the TGI in the test on UACC-62 melanoma and in the test on UO-31 renal was above 100 µM each time.

With `CC(C)(C)OC(=O)NCCCCCCCCCn1c2c(c3ccccc3c1=O)C(=O)c1ccccc1-2`, the GI50 with HCC-2998 colon is above 100 µM; with HOP-62 NSCLC, 24.8 µM; with HS 578T breast, 14.2 µM; with MALME-3M melanoma, 13.9 µM; in the test with MOLT-4 leukemia it was above 100 µM; in the test on NCI/ADR-RES ovarian it was 43.5 µM. Moreover, the GI50 was above 100 µM in the test on SW-620 colon, 17.3 µM in the test on UACC-62 melanoma and above 100 µM in the test on UO-31 renal. The TGI in the test on HCC-2998 colon is above 100 µM; with HOP-62 NSCLC, 71.6 µM; in the test on HS 578T breast, 43.6 µM; in the test with MALME-3M melanoma, 43 µM; in the test with MOLT-4 leukemia, above 100 µM; in the test on NCI/ADR-RES ovarian, above 100 µM. Further, the TGI in the test on SW-620 colon was above 100 µM; in the test on UACC-62 melanoma it was 40.7 µM; in the test on UO-31 renal, above 100 µM.

`CC1=CC(=O)NP(=O)(Oc2ccc(Cl)cc2)N1` (stereo not given): the TGI in the test with HOP-62 NSCLC, in the test on MALME-3M melanoma, in the test on MOLT-4 leukemia, in the test on SR leukemia, in the test with SW-620 colon and in the test with UACC-62 melanoma was above 100 µM each time. For the same compound, in the test on UO-31 renal, the TGI was above 100 µM.

As for `COc1cc(C[C@H]2COC(=O)[C@]2(O)Cc2ccc(OCc3ccccc3)c(OC)c2)ccc1OCc1ccccc1`, the GI50 in the test on HCC-2998 colon is 26.5 µM; with HOP-62 NSCLC, above 100 µM; in the test with HS 578T breast, 42.9 µM; in the test on MALME-3M melanoma, 8.33 µM; in the test on MOLT-4 leukemia it was 6.2 µM; with NCI/ADR-RES ovarian, 5.18 µM. The GI50 is above 100 µM in the test on SW-620 colon, 40.5 µM in the test with UACC-62 melanoma and 35.5 µM in the test with UO-31 renal. In addition, the TGI in the test on HCC-2998 colon is above 100 µM; in the test on HOP-62 NSCLC, above 100 µM; in the test with HS 578T breast, above 100 µM; in the test on MALME-3M melanoma, 87.3 µM; in the test with MOLT-4 leukemia it was above 100 µM; in the test with NCI/ADR-RES ovarian, above 100 µM. For the same compound, the TGI in the test with SW-620 colon, in the test on UACC-62 melanoma and in the test with UO-31 renal was above 100 µM throughout.

In the case of `COCN1COCN(C)C1=O`, the TGI in the test on HCC-2998 colon, in the test on HOP-62 NSCLC, with MALME-3M melanoma, in the test on SW-620 colon, in the test on UACC-62 melanoma and in the test on UO-31 renal was above 100 µM throughout.

On to `CC(=O)OC1(Sc2ccccc2)CC2[C@H]3COC(C)(C)O[C@H]3CC[C@@]2(C)CC1=O` (stereo not given in full), for which the TGI is above 100 µM in the test with MALME-3M melanoma; above 100 µM with MOLT-4 leukemia; 45.4 µM in the test with SR leukemia; above 100 µM with SW-620 colon; above 100 µM in the test on UACC-62 melanoma; above 100 µM with UO-31 renal.

`Cc1nc2ccccc2c(=O)n1/N=C(\N=Nc1ccc(Cl)cc1)c1cccc(-c2ccco2)c1`: the TGI with HOP-62 NSCLC was 62.6 µM; in the test with MOLT-4 leukemia, above 100 µM; in the test with SW-620 colon it was above 100 µM; in the test with UACC-62 melanoma, 87 µM; in the test with UO-31 renal, 43.1 µM.

As to `O=NNc1ccc(-c2ccccc2)cn1`, the TGI with HCC-2998 colon is above 76.4 µM; in the test on HOP-62 NSCLC it was 20.6 µM; in the test on HS 578T breast, above 58.9 µM; in the test on MALME-3M melanoma, 49.8 µM; with NCI/ADR-RES ovarian it was above 43.1 µM; with SW-620 colon, above 77 µM. The TGI in the test on UACC-62 melanoma was determined as 31.3 µM; in the test with UO-31 renal it was 58 µM.

On to `Cc1c(C)c2cc3c(=O)c(CCl)coc3c(C)c2oc1=O`, for which the TGI in the test with HCC-2998 colon, in the test with HOP-62 NSCLC, in the test on MALME-3M melanoma, in the test on MOLT-4 leukemia, in the test with SW-620 colon and in the test with UACC-62 melanoma was above 100 µM in each case. Further, the TGI in the test on UO-31 renal is above 100 µM.

Values taken from PubChem BioAssay (NCI).
